Source: a melting point compilation (Tetko et al.; mined from patent text by program, amines drawn as free bases though some values may be those of a salt)

| melting point [°C] | SMILES |
| --- | --- |
| 164 | CC(=O)C(C)(C#N)c1ccc2c(c1)Cc1cccnc1O2 (configuration not stated) |
| 273 | Cc1ccc2c(c1)C=Cc1cc(C)ccc1C2c1cn(Cc2nc(C(=O)O)co2)c(=O)[nH]c1=S |
| 163 to 165 | COC(=O)c1ccccc1S(=O)(=O)NC(=O)c1nc(OC)cc(OC)n1 |
| 171 to 173 | CC(OC(=O)Nc1ccc(-c2ncn(-c3ccc(OC(F)(F)F)cc3)n2)cc1)C(F)(F)C(F)(F)F (configuration not stated) |
| 126 to 127 | COc1c(C)c(C)c(OC)c(C=CC(=O)C(=O)O)c1C |
| 96 to 97 | Cc1c(C)c2c(c(C)c1O)CC(CCI)O2 (racemic) |
| 110 to 111 | COc1ccc(C=NO)c(OC)c1C |
| 195 | COc1ccc(C(=O)Nc2nc3ccc(N(C)C)cc3c(NCc3ccco3)c2C#N)cc1 |
| 163 to 168 | O=C(O)c1cc2cc(Cl)ccc2nc1N[C@@H](Cc1ccc(Cl)cc1)C(=O)O |
| 252 | COc1cc(C2=C(c3cc4ccccc4[nH]3)C(=O)NC2=O)cc(OC)c1OC |
| 183 to 185 | O=S(c1c(C(F)(F)F)[nH]c2ccccc12)C(F)(F)F (configuration not stated) |
| 104 to 110 | CCCCC1=NC2(CCCC2)C(=O)N1Cc1ccc(-c2ccccc2S(=O)(=O)NC(=O)c2onc(C)c2C)c(CN2CCC(C)(C)C2=O)c1 |
| 115 to 116 | S=C(Cc1ccccc1)N1CCOCC1 |
| 64 | COc1nsc(S(=O)(=O)c2ccccc2)c1C#N |
| 112 | CC(=O)Nc1cccc2c1C(=O)OC2C (configuration not stated) |
| 289 to 290 | O=C(O)c1cc(-c2ccc(C(F)(F)F)cc2)nc(-c2ccc(C(F)(F)F)cc2)c1 |
| 180 to 182 | CCOc1cc2c(cc1OCC)-c1c(C#N)sc(=N)n1CC2 |
| 128 to 130 | CONC(=O)Nc1ccc(-c2sc3c(c2CN(C)C(C)c2ccccc2)c(=O)n(-c2ccc(F)cn2)c(=O)n3Cc2c(F)cccc2F)cc1 (configuration not stated) |
| 172 | Cc1nc2ccc(NC(=O)CC34CC5CC(CC(C5)C3)C4)cc2s1 |
| 85.5 to 86.5 | O=C1OCN(C(=O)OCc2ccccc2)[C@H]1Cc1ccccc1 |
| 95 to 105 | CC(Oc1ccc2nc(NC(=O)NCCC3CCN(C(=O)OC(C)(C)C)CC3)sc2c1)c1c(Cl)ccc(F)c1Cl (configuration not stated) |
| 74 | C(=C1CCN(C(c2ccccc2)(c2ccccc2)c2ccccc2)CC1)c1ccc(C2=NCCO2)cc1 |
| 137 to 139 | CC(C)(C)c1ccccc1N1CCN(C(=O)c2ccc(F)cc2)CC1 |

| melting point [°C] | SMILES |
| --- | --- |
| 184 to 186 | COc1ccc(Cn2c(=O)cc(-c3ccccn3)c3cnc(N4CCC[C@H]4CO)nc32)cc1Cl |
| 130 | CC(C)NCC(O)COc1ccc(NC(=O)N(C)C)cc1Cl (configuration not stated) |
| 161 to 162 | N=C(Nc1ccc(Cl)c(Cl)c1)Nc1ncccc1OCc1ccccc1 |
| 91 to 93 | CN(C)C=NC(=O)C=Cc1ccccc1 |
| 129 to 130 | CCNc1c(OC)cc(C(=O)CS(C)(=O)=O)cc1OC |
| 237 | COC1=C(C(=O)c2ccc(C)cc2)C(c2ccc(C(C)C)cc2)N(c2ncc(S(=O)(=O)c3ccc([N+](=O)[O-])cc3)s2)C1=O (configuration not stated) |
| 137 to 140 | O=Cc1ccc(-c2ncn(-c3ccc(OC(F)(F)F)cc3)n2)cc1 |
| 121 to 122 | O=C(NNCCO)c1ccc(NCc2cc(Br)ccc2OCc2ccccc2)cc1 |
| 162 to 164 | CCOC(=O)CN1CCC(CNC(=O)c2cc(Cl)c(N)[nH]c2=O)CC1 |
| 228 | Cn1cc(C[C@H]2NC(=O)[C@@H](CCC(=O)O)NC2=O)c2ccccc21 |
| 100 to 101 | Cc1oc(-c2ccccc2)nc1COc1cc(CO)ccn1 |
| 110 to 112 | CCNC(=O)n1nc(Oc2ccc([N+](=O)[O-])c(OCC)c2)cc1C |
| 91 to 117 | CC(C)C(=NO)c1ccc(Cl)cc1 |
| 90 to 94 | COc1cc2cc(CO)c(CO)c(-c3ccnc(N4CCC(O)c5ccccc54)c3)c2cc1OC (configuration not stated) |
| > 290 | Cc1ccccc1-c1coc2cc(O)cc(Cl)c2c1=O |
| 285 to 287 | Cn1nc2nc(C(C)(C)C)[nH]c(=O)c2c1N |
| 220 | CC(=O)Oc1ccc(C(=O)Nc2ccc3ccc(Cl)nc3n2)cc1 |
| 170 to 172 | Oc1ccc(-c2ccccn2)c(O)c1 |
| 139 to 141 | Cn1nc2cccc(OCC3CC3)c2c1S(N)(=O)=O |
| > 280 | N#Cc1cnc2c(-c3ccncc3)c(-c3ccc(F)cc3)nn2c1N |
| 230 to 232 | NS(=O)(=O)c1cc(C(=O)O)cc([N+](=O)[O-])c1Oc1cccc(Cl)c1 |
| 50 to 52 | Cc1cc(Cl)c(N)c(Cl)c1 |
| 115 to 119 | C=CCOc1ccc(CC(=O)NCC(=O)O)cc1Cl |

| melting point [°C] | SMILES |
| --- | --- |
| 124 to 125 | CCOC(=O)c1cc2cccc(N(C)S(=O)(=O)c3ccccc3OC)c2n1COC |
| 198 to 200 | CC(C)(CNc1ccc(C(=O)CCC(=O)O)cc1)[N+](=O)[O-] |
| 270 to 272 | CNc1cc(NS(=O)(=O)c2ccc(C)cc2)nc(NC)n1 |
| 152 | Cc1ccc2c(c1)c(N1CCNCC1)c(C#N)c(=O)n2Cc1ccccc1 |
| 160 to 162 | COc1cc(OC)c(NC(=O)[C@H]2[C@H](c3ccccc3)C2(C)C)cc1Cl (relative stereo) |
| 254 to 255 | N#Cc1c(-c2ccccc2)[nH]c(Cl)c1Cl |
| 137 to 138 | CCCCCCc1nc2cnc3ccccc3c2n1CCCCNS(=O)(=O)c1ccccc1 |
| 286 to 288 | CN(c1c(Cl)ccc2cc(C(=O)O)[nH]c12)S(=O)(=O)c1cccs1 |
| 210 to 212 | O=C(O)c1cc(S(=O)(=O)c2ccccc2)ccc1[N+](=O)[O-] |
| 375 to 378 | Cc1cccc2[nH]c(Nc3ccc(C(=O)O)cc3)nc12 |
| 149 to 151 | CCOC(=O)C1=C(C)N(C)C(C)=C(C(=O)OCC)C1c1ccccc1/C=C/C(=O)OC(C)(C)C |
| 101 to 103 | CC(=O)c1ccc(CC(C)OS(=O)(=O)c2ccc(C)cc2)s1 (racemic) |
| 123 to 124 | CCOC(=O)c1c(C)nc2c(c1Cl)c1ccccc1n2C |
| 277 to 280 | O=C1Nc2cc(F)ccc2C1c1ncnc2c1cnn2C1CCCCC1 (configuration not stated) |
| 117 to 120 | CC(O)CNC(=O)NC(=O)C(CC1CCCC1)c1ccc(Cl)c(Cl)c1 (configuration not stated) |
| 144 to 146 | COc1cccc([C@H]2O[C@H](CC(=O)Nc3ccc(CCC(=O)O)cc3)C(=O)N(CC(C)(C)COC(C)=O)c3ccc(Cl)cc32)c1OC |
| 139 to 140 | COc1ccc(C(Cc2cc(Cl)nc(Cl)c2)=NO)cc1OC1CCCC1 |
| 146 to 149 | COc1cc2c(cc1O)/C(=N/OCc1ccc([N+](=O)[O-])cc1)CC2 |
| 132 to 136 | CCn1c(C)c(C2(N(c3ccccc3)c3ccccc3)OC(=O)c3cccnc32)c2ccccc21 (configuration not stated) |
| 45 to 49 | CCCCC#CCCOc1c(I)cc(I)cc1I |
| 85 to 87 | COC(=O)c1cc(OCCCCCCOc2ccc(-c3ccccc3)cc2)ccc1OCc1ccccc1 |
| 120 to 124 | CN1CCN(c2ccccc2C=C2C(=O)N(Cc3ccc(Cl)c(Cl)c3)c3ccccc32)CC1 |
| 158 to 159 | CCCc1nc2c(N)nc3ccccc3c2n1CCCCCC(=O)NC |

| melting point [°C] | SMILES |
| --- | --- |
| 93 to 94 | COC(=O)c1c(Cl)cc(Cl)cc1NC(=O)CSc1ccccc1OC |
| 99 to 101 | COC(=O)COc1ccc(C(=O)CBr)c2ccccc12 |
| 75 to 76 | CC(C)=CCc1c(O)ccc(C(=O)C=Cc2ccc(O)cc2)c1O |
| 144 to 146 | CC(=O)c1ccccc1-c1cccc(-n2cnc(-c3nc(C)no3)c2)c1 |
| 273 to 275 | CNc1ncccc1C(=O)Nc1ccc2c(c1)-c1c(c(C(N)=O)nn1-c1ccc3c(c1)OCO3)CC2 |
| 244 to 247 | CC(C)c1ccccc1N1C(=O)CS/C1=N\C(=O)Nc1ccc(-c2nnc(-c3ccc(OC(F)(F)C(F)(F)F)cc3)o2)cc1 |
| 171 | CC(=O)Nc1ccccc1C(=O)NCCN1CCC(Nc2nc3ccccc3n2Cc2ccc(F)cc2)CC1 |
| 93 to 96 | CCOC(=O)C(Cc1ccc(OC)cc1)c1cc2cc(C#N)ccc2s1 (configuration not stated) |
| 70 to 72 | Cc1ccc(S(=O)(=O)Oc2ccc(C=O)cc2)cc1 |
| 171 to 173 | CCNc1nc(OC)c(C(=O)NC2CCN(C3CCCCC3)C2)nc1Cl (configuration not stated) |
| 143 to 144 | O=C(CCl)NCc1ccc2ccn(C3CCN(CCc4ccc(F)cc4)CC3)c2c1 |
| 161 to 163 | O=C1NCCC[C@@H]1NS(=O)(=O)c1ccccc1C(F)(F)F |
| 77 to 81 | COC(=O)c1ccc(OCCNC(=O)C2Cc3ccccc3N2S(=O)(=O)c2ccc(-c3ccc(F)cc3)cc2)cc1F (configuration not stated) |
| 130 to 132 | CCCC(=O)OC1CC(n2cc(CC)c(=O)[nH]c2=O)OC1CNC(=O)Cc1c(Cl)cccc1Cl (configuration not stated) |
| 107 to 108 | CCOC(=O)c1cn(C)cc(-c2ccccc2)c1=O |
| 118 to 120 | COC(=O)Cc1ccc(C(=O)c2ccc(C)cc2)[nH]1 |
| 96.5 to 99.1 | CCOC(=O)CCc1cc(-c2ccccc2)n(-c2ccc(S(C)(=O)=O)cc2)n1 |
| 114 | N#CCCC(CCC#N)(CCC#N)[N+](=O)[O-] |
| 59 to 60 | Cc1ccc2c(c1)CCN2c1ccccc1C#N |
| 246 to 247 | Cn1c(=O)c2c(Br)cccc2n2cnc(-c3nc(C4CC4)no3)c12 |

| SMILES | melting point [°C] |
| --- | --- |
| CCCCCn1c2ccccc2c2cc(C(=O)NCC(C)(C)C)ncc21 | 91 to 92 |
| O=c1oc2ccccc2c(O)c1C1CC(c2ccc(-c3ccc(OCc4ccc(Br)cc4)cc3)cc2)Cc2ccccc21 (configuration not stated) | 240 |
| CN1Cc2c(C(=O)OC(C)(C)C)ncn2-c2ccncc2C1=O | 214 to 215 |
| COc1ccc(CCN2CCC(Nc3nc4cncnc4n3Cc3ccccn3)CC2)cc1 | 144 |
| CN1C(=O)C2CCCN2Cc2ccccc21 (configuration not stated) | 120 to 122 |
| CCOC(=O)CCCC1CCN(CCOC(c2ccccc2)c2ccc(Cl)cc2)CC1 (configuration not stated) | 117 to 119 |
| CC(=O)OC1CC2(C)C(=O)CCC2C2C=CC3=CC(=O)CCC3C12 (configuration not stated) | 246 to 248 |
| COc1ccc2cccc(C(CNC(=O)CF)COS(C)(=O)=O)c2c1 (configuration not stated) | 122 to 124 |
